According to PubChem BioAssay AID1963828 (Molecular Pharmacology Branch, DTP, NCI, 2024):

Test system: 991263-137-R1-J2-PDC complex spheroid viability
Assay: Anticancer human tumor 991263-137-R1-J2-PDC patient-derived colon adenocarcinoma cell line growth inhibition [POLQ]
Settings: for IC50: curve of first compound; for viability, T/C: stronger effect = lower value
How it was run: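 Patient-derived tumour cells were co-cultured with HUVEC and mesenchymal stem cells as multicellular spheroids at 37 °C. They were treated with POLQ inhibitors (novobiocin, ART-558, RP6685) alone or combined with other agents. Top concentrations were at or near clinical Cmax (otherwise 10 microM; SN-38 at 1 microM), decreasing in half-log steps.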

[1] = second compound 0.0316 µM, first compound 0.0316 µM
[2] = second compound 0.0316 µM, first compound 0.1 µM
[3] = second compound 0.1 µM, first compound 0.0316 µM
[4] = second compound 0.1 µM, first compound 0.1 µM
[5] = second compound 0.316 µM, first compound 0.0316 µM
[6] = second compound 0.316 µM, first compound 0.1 µM
[7] = second compound 1 µM, first compound 0.0316 µM
[8] = second compound 1 µM, first compound 0.1 µM
[9] = second compound 3.16 µM, first compound 0.0316 µM
[10] = second compound 3.16 µM, first compound 0.1 µM
[11] = second compound 10 µM, first compound 0.0316 µM
[12] = second compound 10 µM, first compound 0.1 µM
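Note: spheroids exposed to compounds for 7 days before readout.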
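Throughout, for viability, T/C: 100% = DMSO vehicle control viability.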

CC(C)n1c(=O)n(C)c2cnc3cc(F)c(-c4ccc(OCCCN5CCCCC5)nc4)cc3c21 + Nc1ccc(C#CCN(C(=O)Cc2ncc(C(F)(F)F)cc2C(F)(F)F)c2ccc(F)cc2)nn1
IC50 (second compound 0.0316 µM): > 10 µM | IC50 (second compound 0.1 µM): > 10 µM | IC50 (second compound 0.316 µM): > 10 µM | IC50 (second compound 1 µM): > 10 µM | IC50 (second compound 3.16 µM): > 10 µM | IC50 (second compound 10 µM): > 10 µM | viability, T/C [1]: 96.6% | viability, T/C [2]: 109% | viability, T/C (second compound 0.0316 µM, first compound 0.316 µM): 111% | viability, T/C (second compound 0.0316 µM, first compound 1 µM): 121% | viability, T/C (second compound 0.0316 µM, first compound 3.16 µM): 98.8% | viability, T/C (second compound 0.0316 µM, first compound 10 µM): 111% | viability, T/C [3]: 103% | viability, T/C [4]: 99.8% | viability, T/C (second compound 0.1 µM, first compound 0.316 µM): 102% | viability, T/C (second compound 0.1 µM, first compound 1 µM): 121% | viability, T/C (second compound 0.1 µM, first compound 3.16 µM): 101% | viability, T/C (second compound 0.1 µM, first compound 10 µM): 85.8% | viability, T/C [5]: 104% | viability, T/C [6]: 99.4% | viability, T/C (second compound 0.316 µM, first compound 0.316 µM): 101% | viability, T/C (second compound 0.316 µM, first compound 1 µM): 110% | viability, T/C (second compound 0.316 µM, first compound 3.16 µM): 103% | viability, T/C (second compound 0.316 µM, first compound 10 µM): 111% | viability, T/C [7]: 105% | viability, T/C [8]: 100% | viability, T/C (second compound 1 µM, first compound 0.316 µM): 105% | viability, T/C (second compound 1 µM, first compound 1 µM): 104% | viability, T/C (second compound 1 µM, first compound 3.16 µM): 95.5% | viability, T/C (second compound 1 µM, first compound 10 µM): 90.1% | viability, T/C [9]: 90.7% | viability, T/C [10]: 97.7% | viability, T/C (second compound 3.16 µM, first compound 0.316 µM): 106% | viability, T/C (second compound 3.16 µM, first compound 1 µM): 118% | viability, T/C (second compound 3.16 µM, first compound 3.16 µM): 111% | viability, T/C (second compound 3.16 µM, first compound 10 µM): 105% | viability, T/C [11]: 99% | viability, T/C [12]: 96.2% | viability, T/C (second compound 10 µM, first compound 0.316 µM): 112% | viability, T/C (second compound 10 µM, first compound 1 µM): 94.5% | viability, T/C (second compound 10 µM, first compound 3.16 µM): 93.5% | viability, T/C (second compound 10 µM, first compound 10 µM): 101%

Cn1ncnc1[C@H]1c2n[nH]c(=O)c3cc(F)cc(c23)N[C@@H]1c1ccc(F)cc1 + Cc1cccc(N(C)C(=O)C2C(O)CCN2c2nc(C)cc(C(F)(F)F)c2C#N)c1
IC50 (second compound 0.0316 µM): > 0.1 µM | IC50 (second compound 0.1 µM): > 0.1 µM | IC50 (second compound 0.316 µM): > 0.1 µM | IC50 (second compound 1 µM): > 0.1 µM | IC50 (second compound 3.16 µM): > 0.1 µM | IC50 (second compound 10 µM): > 0.1 µM | viability, T/C (second compound 0.0316 µM, first compound 0.000316 µM): 84.3% | viability, T/C (second compound 0.0316 µM, first compound 0.001 µM): 112% | viability, T/C (second compound 0.0316 µM, first compound 0.00316 µM): 123% | viability, T/C (second compound 0.0316 µM, first compound 0.01 µM): 93.3% | viability, T/C [1]: 124% | viability, T/C [2]: 112% | viability, T/C (second compound 0.1 µM, first compound 0.000316 µM): 105% | viability, T/C (second compound 0.1 µM, first compound 0.001 µM): 130% | viability, T/C (second compound 0.1 µM, first compound 0.00316 µM): 98.4% | viability, T/C (second compound 0.1 µM, first compound 0.01 µM): 83.8% | viability, T/C [3]: 91.8% | viability, T/C [4]: 86.9% | viability, T/C (second compound 0.316 µM, first compound 0.000316 µM): 97.9% | viability, T/C (second compound 0.316 µM, first compound 0.001 µM): 128% | viability, T/C (second compound 0.316 µM, first compound 0.00316 µM): 101% | viability, T/C (second compound 0.316 µM, first compound 0.01 µM): 92.7% | viability, T/C [5]: 110% | viability, T/C [6]: 99.4% | viability, T/C (second compound 1 µM, first compound 0.000316 µM): 92.1% | viability, T/C (second compound 1 µM, first compound 0.001 µM): 110% | viability, T/C (second compound 1 µM, first compound 0.00316 µM): 101% | viability, T/C (second compound 1 µM, first compound 0.01 µM): 104% | viability, T/C [7]: 99.7% | viability, T/C [8]: 115% | viability, T/C (second compound 3.16 µM, first compound 0.000316 µM): 103% | viability, T/C (second compound 3.16 µM, first compound 0.001 µM): 113% | viability, T/C (second compound 3.16 µM, first compound 0.00316 µM): 106% | viability, T/C (second compound 3.16 µM, first compound 0.01 µM): 78.5% | viability, T/C [9]: 91.7% | viability, T/C [10]: 106% | viability, T/C (second compound 10 µM, first compound 0.000316 µM): 105% | viability, T/C (second compound 10 µM, first compound 0.001 µM): 114% | viability, T/C (second compound 10 µM, first compound 0.00316 µM): 92.9% | viability, T/C (second compound 10 µM, first compound 0.01 µM): 74.8% | viability, T/C [11]: 106% | viability, T/C [12]: 92.5%
